The NIST ThermoML archive (doi:10.1021/je301123j)
± gives the expanded uncertainty stated by the source.

Legend:
[1] = for surface tension liquid-gas: Ring tensiometer; for mass density / speed of sound / viscosity: 100 kPa, Liquid
[2] = xn = mol fraction of the nth substance listed; conditions: x2 = 0; for surface tension liquid-gas: Ring tensiometer; for mass density / speed of sound / viscosity: 100 kPa, Liquid

## CCN1CCCC1=O [1-ethyl-2-pyrrolidinone]
[1]; 293.15 K
  surface tension liquid-gas: 36.5 ± 0.8 mN/m
  mass density: 997.91 ± 1.6 kg/m3
  speed of sound: 1513.2 ± 4.1 m/s
  viscosity: 2.132 ± 0.032 mPa·s
[1]; 303.15 K
  surface tension liquid-gas: 35.2 ± 0.8 mN/m
  mass density: 989.34 ± 1.6 kg/m3
  speed of sound: 1475 ± 4.1 m/s
  viscosity: 1.777 ± 0.027 mPa·s
[1]; 313.15 K
  surface tension liquid-gas: 34.2 ± 0.8 mN/m
  mass density: 980.76 ± 1.7 kg/m3
  speed of sound: 1437.6 ± 4.1 m/s
  viscosity: 1.515 ± 0.023 mPa·s
[1]; 323.15 K
  mass density: 972.16 ± 1.8 kg/m3
  speed of sound: 1400.6 ± 4 m/s
  viscosity: 1.31 ± 0.02 mPa·s

## NCCO [2-aminoethan-1-ol]
[1]; 293.15 K
  surface tension liquid-gas: 49.7 ± 0.9 mN/m
  mass density: 1015.93 ± 1.1 kg/m3
  speed of sound: 1734.4 ± 4 m/s
  viscosity: 24.23 ± 0.24 mPa·s
[1]; 303.15 K
  surface tension liquid-gas: 47.8 ± 0.9 mN/m
  mass density: 1008.02 ± 1 kg/m3
  speed of sound: 1702.1 ± 4 m/s
  viscosity: 14.99 ± 0.15 mPa·s
[1]; 313.15 K
  surface tension liquid-gas: 47.1 ± 0.9 mN/m
  mass density: 1000.06 ± 0.95 kg/m3
  speed of sound: 1670.1 ± 3.9 m/s
  viscosity: 9.776 ± 0.1 mPa·s
[1]; 323.15 K
  mass density: 992.05 ± 1 kg/m3
  speed of sound: 1637.2 ± 3.9 m/s
  viscosity: 6.765 ± 0.076 mPa·s

## NCCO [2-aminoethan-1-ol] + CCN1CCCC1=O
[2]; 293.15 K
  surface tension liquid-gas: 49.7 ± 0.9 mN/m
  mass density: 1015.93 ± 1.1 kg/m3
  speed of sound: 1734.4 ± 4 m/s
  viscosity: 24.23 ± 0.24 mPa·s
[2]; 303.15 K
  surface tension liquid-gas: 47.8 ± 0.9 mN/m
  mass density: 1008.02 ± 1 kg/m3
  speed of sound: 1702.1 ± 4 m/s
  viscosity: 14.99 ± 0.15 mPa·s
[2]; 313.15 K
  surface tension liquid-gas: 47.1 ± 0.9 mN/m
  mass density: 1000.06 ± 0.95 kg/m3
  speed of sound: 1670.1 ± 3.9 m/s
  viscosity: 9.776 ± 0.1 mPa·s
[2]; 323.15 K
  mass density: 992.05 ± 1 kg/m3
  speed of sound: 1637.2 ± 3.9 m/s
  viscosity: 6.765 ± 0.076 mPa·s

## OCCNCCO [diethanolamine]
[1]; 293.15 K
  surface tension liquid-gas: 47.4 ± 0.9 mN/m
  mass density: 1096.45 ± 1.9 kg/m3
  speed of sound: 1739.2 ± 4 m/s
  viscosity: 892.04 ± 87 mPa·s
[1]; 303.15 K
  surface tension liquid-gas: 46.6 ± 0.9 mN/m
  mass density: 1090.02 ± 1.8 kg/m3
  speed of sound: 1711.3 ± 4 m/s
  viscosity: 394.2 ± 28 mPa·s
[1]; 313.15 K
  surface tension liquid-gas: 46 ± 0.9 mN/m
  mass density: 1083.51 ± 1.8 kg/m3
  speed of sound: 1685.9 ± 3.9 m/s
  viscosity: 191.32 ± 8.8 mPa·s
[1]; 323.15 K
  mass density: 1077.05 ± 1.7 kg/m3
  speed of sound: 1661.1 ± 3.9 m/s
  viscosity: 102.72 ± 2.6 mPa·s

## OCCNCCO [diethanolamine] + CCN1CCCC1=O
[2]; 293.15 K
  surface tension liquid-gas: 47.4 ± 0.9 mN/m
  mass density: 1096.45 ± 1.9 kg/m3
  speed of sound: 1739.2 ± 4 m/s
  viscosity: 892.04 ± 87 mPa·s
[2]; 303.15 K
  surface tension liquid-gas: 46.6 ± 0.9 mN/m
  mass density: 1090.02 ± 1.8 kg/m3
  speed of sound: 1711.3 ± 4 m/s
  viscosity: 394.2 ± 28 mPa·s
[2]; 313.15 K
  surface tension liquid-gas: 46 ± 0.9 mN/m
  mass density: 1083.51 ± 1.8 kg/m3
  speed of sound: 1685.9 ± 3.9 m/s
  viscosity: 191.32 ± 8.8 mPa·s
[2]; 323.15 K
  mass density: 1077.05 ± 1.7 kg/m3
  speed of sound: 1661.1 ± 3.9 m/s
  viscosity: 102.72 ± 2.6 mPa·s

## OCCN(CCO)CCO [triethanolamine]
[1]; 293.15 K
  surface tension liquid-gas: 46.3 ± 0.9 mN/m
  mass density: 1123.51 ± 2.1 kg/m3
  speed of sound: 1626.9 ± 3.9 m/s
  viscosity: 951.79 ± 95 mPa·s
[1]; 303.15 K
  surface tension liquid-gas: 45.6 ± 0.8 mN/m
  mass density: 1118 ± 2.1 kg/m3
  speed of sound: 1605.3 ± 3.8 m/s
  viscosity: 413.68 ± 30 mPa·s
[1]; 313.15 K
  surface tension liquid-gas: 44.8 ± 0.8 mN/m
  mass density: 1112.34 ± 2 kg/m3
  speed of sound: 1587.8 ± 3.8 m/s
  viscosity: 204.57 ± 9.8 mPa·s
[1]; 323.15 K
  mass density: 1106.7 ± 2 kg/m3
  speed of sound: 1571.9 ± 3.8 m/s
  viscosity: 111.34 ± 3.1 mPa·s

## OCCN(CCO)CCO [triethanolamine] + CCN1CCCC1=O
[2]; 293.15 K
  surface tension liquid-gas: 46.3 ± 0.9 mN/m
  mass density: 1123.51 ± 2.1 kg/m3
  speed of sound: 1626.9 ± 3.9 m/s
  viscosity: 951.79 ± 95 mPa·s
[2]; 303.15 K
  surface tension liquid-gas: 45.6 ± 0.8 mN/m
  mass density: 1118 ± 2.1 kg/m3
  speed of sound: 1605.3 ± 3.8 m/s
  viscosity: 413.68 ± 30 mPa·s
[2]; 313.15 K
  surface tension liquid-gas: 44.8 ± 0.8 mN/m
  mass density: 1112.34 ± 2 kg/m3
  speed of sound: 1587.8 ± 3.8 m/s
  viscosity: 204.57 ± 9.8 mPa·s
[2]; 323.15 K
  mass density: 1106.7 ± 2 kg/m3
  speed of sound: 1571.9 ± 3.8 m/s
  viscosity: 111.34 ± 3.1 mPa·s
